In data set [1] the test system is TRPC5. The arrangement: method as in Minard et al., 2019. As to conditions: ref Minard et al., 2019; read-out: EC50 as TRPC5 activator; cited from earlier work.
Data set [2] has as its system TRPC5. The arrangement: method as in Richter et al., 2014; Zhou et al., 2017; Zhu et al., 2015. As to conditions: ref Richter et al., 2014; Zhou et al., 2017; Zhu et al., 2015; read-out: IC50 for inhibition of TRPC5; cited from earlier work.
Data set [3] deals with the molecule itself. Put plainly: cryo-EM structure; purified hTRPC5(1-764) in GDN micelles with 100 uM Ca2+ plus 500 uM CMZ, 50 uM HC-070 or EA (EA not seen, 'apo'); graphene oxide grids; C4 symmetry imposed in refinement.
Data set [4] concerns the molecule itself. Kind of data set: SEC; fluorescence-detection SEC (FSEC) of transfected HEK293F cells solubilised in 1% LMNG, 0.1% CHS in TBS (20 mM Tris-HCl pH 8.0, 150 mM NaCl), 4°C; Superose-6 Increase.

Data on four molecules can be found in paper PMC7987348, “Structural basis for human TRPC5 channel inhibition by two distinct inhibitors” (eLife, 2021).

As usually defined, the EC50 is the concentration that produces a half-maximal response. The IC50 is the point on the concentration scale where inhibition reaches its midpoint. The stoichiometry N is a count of units in the complex or per binding partner.

For `Cn1c(=O)n(CCCO)c(=O)c2c1nc(Oc1ccc(Cl)c(OC(F)(F)F)c1)n2Cc1ccc(Cl)cc1` [AM237], the EC50 with TRPC5 [1] was 0.015 to 0.02 µM. For `c1ccc(Cn2c(NCc3ccco3)nc3ccccc32)cc1` [AC1903], in the data set with TRPC5 [2], the IC50 was 14.7 µM.

B1: human TRPC5 residues 1-764 (hTRPC5_(1-764)), purified tetrameric channel (domain or fragment, UniProt Q9UL62 1-764, looked up)
chain: MAQLYYKKVNYSPYRDRIPLQIVRAETELSAEEKAFLNAVEKGDYATVKQALQEAEIYYNVNINCMDPLGRSALLIAIENENLEIMELLLNHSVYVGDALLYAIRKEVVGAVELLLSYRRPSGEKQVPTLMMDTQFSEFTPDITPIMLAAHTNNYEIIKLLVQKRVTIPRPHQIRCNCVECVSSSEVDSLRHSRSRLNIYKALASPSLIALSSEDPILTAFRLGWELKELSKVENEFKAEYEELSQQCKLFAKDLLDQARSSRELEIILNHRDDHSEELDPQKYHDLAKLKVAIKYHQKEFVAQPNCQQLLATLWYDGFPGWRRKHWVVKLLTCMTIGFLFPMLSIAYLISPRSNLGLFIKKPFIKFICHTASYLTFLFMLLLASQHIVRTDLHVQGPPPTVVEWMILPWVLGFIWGEIKEMWDGGFTEYIHDWWNLMDFAMNSLYLATISLKIVAYVKYNGSRPREEWEMWHPTLIAEALFAISNILSSLRLISLFTANSHLGPLQISLGRMLLDILKFLFIYCLVLLAFANGLNQLYFYYETRAIDEPNNCKGIRCEKQNNAFSTLFETLQSLFWSVFGLLNLYVTNVKARHEFTEFVGATMFGTYNVISLVVLLNMLIAMMNNSYQLIADHADIEWKFARTKLWMSYFDEGGTLPPPFNIIPSPKSFLYLGNWFNNTFCPKRDPDGRRRRRNLRSFTERNADSLIQNQHYQEVIRNLVKRYVAAMIRNSKTHEGLTEENFKELKQDISSFRYEVLDLLGNR
notes: human TRPC5 (transient receptor potential canonical 5), C-terminally truncated construct, residues 1-764; That this removes the GFP-MBP tag is surmised; also called apo hTRPC5; source: HEK293F, BacMam baculovirus infection, purified (MBP resin, H3C protease digestion, Superose-6 Increase SEC in GDN); not shown: GFP, N-terminal, cleaved; MBP, N-terminal, cleaved
With B1, the “stoichiometry N” value in data set [3] was 4.

B2: GFP-MBP-tagged human TRPC5 residues 1-764 (hTRPC5_(1-764)) as screened by FSEC (domain or fragment, UniProt Q9UL62 1-764, looked up)
chain: MAQLYYKKVNYSPYRDRIPLQIVRAETELSAEEKAFLNAVEKGDYATVKQALQEAEIYYNVNINCMDPLGRSALLIAIENENLEIMELLLNHSVYVGDALLYAIRKEVVGAVELLLSYRRPSGEKQVPTLMMDTQFSEFTPDITPIMLAAHTNNYEIIKLLVQKRVTIPRPHQIRCNCVECVSSSEVDSLRHSRSRLNIYKALASPSLIALSSEDPILTAFRLGWELKELSKVENEFKAEYEELSQQCKLFAKDLLDQARSSRELEIILNHRDDHSEELDPQKYHDLAKLKVAIKYHQKEFVAQPNCQQLLATLWYDGFPGWRRKHWVVKLLTCMTIGFLFPMLSIAYLISPRSNLGLFIKKPFIKFICHTASYLTFLFMLLLASQHIVRTDLHVQGPPPTVVEWMILPWVLGFIWGEIKEMWDGGFTEYIHDWWNLMDFAMNSLYLATISLKIVAYVKYNGSRPREEWEMWHPTLIAEALFAISNILSSLRLISLFTANSHLGPLQISLGRMLLDILKFLFIYCLVLLAFANGLNQLYFYYETRAIDEPNNCKGIRCEKQNNAFSTLFETLQSLFWSVFGLLNLYVTNVKARHEFTEFVGATMFGTYNVISLVVLLNMLIAMMNNSYQLIADHADIEWKFARTKLWMSYFDEGGTLPPPFNIIPSPKSFLYLGNWFNNTFCPKRDPDGRRRRRNLRSFTERNADSLIQNQHYQEVIRNLVKRYVAAMIRNSKTHEGLTEENFKELKQDISSFRYEVLDLLGNR
notes: human TRPC5 (transient receptor potential canonical 5), C-terminally truncated construct, residues 1-764; Same construct as m1, but uncleaved and unpurified; It is detected by the fluorescence of its GFP tag in FSEC; source: HEK293F, transfected (PEI), solubilised in LMNG/CHS, in supernatant; not shown: GFP, N-terminal, kept; MBP, N-terminal, kept
In the case of B2, the “stoichiometry N” value in data set [4] came out at 4.
